US11278521B2, “GAS5 binding compounds, formulations, and uses thereof” (UNIVERSITY OF SOUTH FLORIDA, priority 2015, dated 2022)
“Also recorded” adds a separate entry of the source.

Assays:
GAS5 [1] = experiment: GAS5 levels in DM adipocytes by SYBR Green qPCR; type: cell-based; conditions: 20 nM, about 24 hours
Method: Strategy for compound design: GAS5 transcript may be targeted to faster turnover by nonsense mediated RNA decay. GAS5 transcript has a premature termination codon which renders greater susceptibility for nonsense mediated RNA decay. […] GAS5 and UPF1 levels were measured in NDM and DM adipocytes.
DM adipocytes were treated with G5-1397 (20 nM) for about 24 hours. GAS5 levels were measured using SYBR Green qPCR.

GAS5 transcript = experiment: RNA-EMSA (REMSA) with biotin-labeled in vitro transcribed GAS5; type: binding; conditions: 0.1 nM biotin-labeled GAS5, 10 nM compound, 10U yeast tRNA, 20 min at room temperature
Method: RNA-EMSA was performed as previously described (see e.g. Apostolatos, H., Apostolatos, A., Vickers, T., Watson, J. E., Song, S., Vale, F., Cooper, D. R., Sanchez-Ramos, J., and Patel, N. A. (2010) Vitamin A metabolite, all-trans-retinoic acid, mediates alternative splicing of protein kinase C deltaVIII (PKCdeltaVIII) isoform via splicing factor SC35. J Biol Chem 285, 25987-25995 and Patel, R. S., Carter, G., Cooper, D. R., Apostolatos, H., and Patel, N. A. (2014) Transformer 2beta homolog (Drosophila) (TRA2B) regulates protein kinase C deltal (PKCdeltal) splice variant expression during 3T3L1 preadipocyte cell cycle. J Biol Chem 289, 31662-31672.
Briefly, GAS5 was cloned in TOPO vector which has the T7 promoter. In vitro transcription assay was performed with biotin-label using RiboScribe kit using T7 RNA polymerase at 37° C. for 2 h in the presence of nucleotides, RNase inhibitor, and 5× transcription buffer. 0.1 nM of transcribed, biotin-labeled GAS5 was incubated with 10 nM G5-1397 in presence of 10U yeast tRNA and 10 units of RNase inhibitor in a final volume of 10 μl of RNA shift buffer for 20 min at room temperature and detected using Biotin Chromogenic Detection kit (ThermoFisher). […] Using the same assay, compounds according to Formulas 4-19 were also observed to bind GAS5 long non-coding RNA.

GAS5 [2] = experiment: screen of γ-AApeptide one-bead-one-compound combinatorial library with fluorescein tagged GAS5 oligonucleotide probe and validation; type: binding; conditions: positive beads from screen of 160,000 molecules, tRNA as control
Description: The interaction between UPF1 and GAS5 was disrupted using a γ-AApeptide based one-bead-one-compound (OBOC) combinatorial library (Wu H, Li Y, Bai G, Niu Y, Qiao Q, Tipton J D, Cao C, Cai J. gamma-AApeptide-based small-molecule ligands that inhibit Abeta aggregation. Chemical communications. 2014; 50(40):5206-8. doi: 10.1039/c3cc46685j. PubMed PMID: 24158240). The γ-AApeptide is a peptidomimetic with side chains for chemical diversity and are resistant to proteolytic cleavage. To screen the compound library, a probe that contained a fluorescein tagged oligonucleotide was synthesized. The probe spanned 30 nucleotides on either side of the UAA sequences on GAS5 (FIG. 2) The fluorescein was attached to the 5′end (beginning of oligonucleotide probe sequence). The nucleotide sequence within the GAS5 IncRNA that the oligonucleotide probe binds to can be about 100% identical to […] […]
The length of oligonucleotide was required to maintain stem loop structure to specifically bind to GAS5. […] The compound having a structure according to Formula 3 was determined to have a chemical formula of C68H92N10O9S, a mass of about 1224.6769, and a molecular weight of 1225.6050. The compound having a structure according to Formula 14 was determined to have a chemical formula of C63H85N9O13S, a mass of about 1207.5988, and a molecular weight of 1208.4830.

DM adipocytes = experiment: cell viability assay after treatment with compound; type: cell-based; conditions: DM adipocytes treated with compound, cell viability assay (FIG. 3B)

SMILES: CC(C)C[C@H]1CN(C(=O)CC2CC2)CC(=O)N[C@@H](CCCCN)CN(C(=O)CCc2ccccc2)CC(=O)N[C@@H](Cc2ccccc2)CN(CC(N)=O)C(=O)CCSCc2ccc(cc2)C(=O)N[C@@H](Cc2ccccc2)CN(C(=O)CC2CC2)CC(=O)N1 [Formula G5-1397]
- GAS5 levels (GAS5 [1]): substantially increases GAS5 levels
- binding to GAS5 transcript (GAS5 transcript): bound to GAS5 transcript; also recorded: GAS5 transcript binding
- ability to bind GAS5 (GAS5 [2]): able to bind GAS5
- cell toxicity (DM adipocytes): without causing cell toxicity

SMILES: C[C@H]1CN(C(=O)CC2CC2)CC(=O)N[C@@H](CCC(=O)O)CN(C(=O)CCC2CCCCC2)CC(=O)N[C@@H](Cc2ccccc2)CN(CC(N)=O)C(=O)CCSCc2ccc(cc2)C(=O)N[C@@H](Cc2ccccc2)CN(C(=O)CCC(=O)O)CC(=O)N1 [Formula 14]
- ability to bind GAS5 (GAS5 [2]): able to bind GAS5
